{
  "source": "ChEMBL document CHEMBL3637782",
  "about": "“GSK Tres Cantos Follow-up TB Screening Data” (2016)",
  "data": [
    {"tested_on": "Mycobacterium tuberculosis variant bovis", "assay": "GSK_TB: Effect of compound calculated as % inhibition at single shot or pIC50 ( pIC50 ATP assay M.bovis)", "assay_type": "functional, organism-based", "details": "BCG / Pasteur", "units": {"IC50": "µM"}, "values": [
      {"smiles": "Nc1ccc(C(O)CNCCc2ccccc2)cc1O", "note": "(stereo not given)", "IC50": 2},
      {"smiles": "O=S(=O)(NCc1ccccc1)c1ccc(-c2cc3ccncc3cc2OC2CCNCC2)s1", "IC50": 2},
      {"smiles": "NC(=O)c1cc2ccc(CC(=O)c3cccs3)cc2s1", "IC50": 15.8},
      {"smiles": "Cc1c(C(=O)NCCOc2ccccc2)[nH]c2c1C(=O)CCC2", "IC50": 7.94},
      {"smiles": "Fc1ccc(Cc2nnc(-c3ccnc(Nc4ccc(OCCN5CCOCC5)cc4)n3)[nH]2)cc1", "IC50": 7.94},
      {"smiles": "N#Cc1ncn(-c2ccc3nnc(C(F)(F)F)n3n2)n1", "IC50": 7.94},
      {"smiles": "O=C(NCc1ccco1)N1CCN(Cc2ccc(Cl)s2)CC1", "IC50": 1.26},
      {"smiles": "Clc1nnc(N2CCCC2)c2ccccc12", "IC50": 3.16},
      {"smiles": "O=C(NCCO)c1c(O)c2ncc(Cc3ccc(F)cc3C(F)(F)F)cc2[nH]c1=O", "IC50": 5.01},
      {"smiles": "O=[N+]([O-])c1cnc(-c2nc3ccccc3[nH]2)s1", "IC50": 3.98},
      {"smiles": "CC1CC1c1ccc(CN2CCc3nc(Nc4ccccc4)sc3CC2)o1", "note": "(stereo not given)", "IC50": 6.31},
      {"smiles": "N#Cc1cccc(-c2ccc(NC[C@H]3CC[C@]4(CC3)CN(c3cccnn3)C(=O)O4)nc2)c1", "IC50": 25.1},
      {"smiles": "NC(=O)c1ccc(CN(C2CC2)S(=O)(=O)c2ccccc2F)cc1", "IC50": 12.6},
      {"smiles": "Nc1ccc(S(=O)(=O)Nc2ccnn2-c2ccccc2)cc1", "note": "[SULFAPHENAZOLE]", "IC50": 10},
      {"smiles": "O=C(NCc1ccco1)N1CCN(Cc2cccs2)CC1", "IC50": 7.94},
      {"smiles": "O=C(NCc1ccoc1)N1CCN(Cc2ccc3c(c2)OCO3)CC1", "IC50": 1.26},
      {"smiles": "CC(C)N(C(=O)CNc1ccccc1Nc1ccccc1)c1ccccc1", "IC50": 6.31},
      {"smiles": "CCCCc1ccc(C(=O)Nc2nnc(S(=O)(=O)CCCC)s2)nc1", "IC50": 7.94},
      {"smiles": "Cc1nc(Nc2cnn(Cc3ccccc3F)c2)c2nn(C)c(C)c2n1", "IC50": 2.51},
      {"smiles": "CNc1snc(C)c1C(=O)NCCOc1ccc(OC)cc1", "IC50": 3.16},
      {"smiles": "COc1ccc2nccc(NC(=O)C3CCN(CCc4ccc(Cl)cc4)CC3)c2n1", "IC50": 5.01},
      {"smiles": "CCOCn1ccc(NS(=O)(=O)c2ccc(N)cc2)nc1=O", "IC50": 3.16},
      {"smiles": "COC(=O)c1ccc(Oc2ccc(-c3csc(C)n3)cc2F)nn1", "IC50": 20},
      {"smiles": "FC(F)(F)c1nnc2ccc(Sc3nnc(-c4ccco4)o3)nn12", "IC50": 3.16},
      {"smiles": "Cc1ccc2oc(SCC(=O)Nc3nccs3)nc2n1", "IC50": 6.31},
      {"smiles": "CN(Cc1ccc(Cl)cc1)C(=O)CCc1nc2ccccc2oc1=O", "IC50": 3.98},
      {"smiles": "COc1ccc(Nc2nc(N[C@@H]3CCNC3)nc3cc[nH]c(=O)c23)cc1NC(=O)c1ccccc1", "IC50": 5.01},
      {"smiles": "O=C(Nc1nc2c(s1)CCCc1cccnc1-2)c1ccccc1C(F)(F)F", "IC50": 2.51},
      {"smiles": "CCCCNCC1COc2ccc(OC)cc2C1=O", "note": "(stereo not given)", "IC50": 6.31},
      {"smiles": "CCCC/C=C/c1cc2ccncc2cc1OC1CCNCC1", "IC50": 2.51},
      {"smiles": "O=C(Nc1nc(-c2ccccn2)cs1)N1CCC(Cc2ccc(F)cc2)CC1", "IC50": 3.98},
      {"smiles": "c1ccc(-c2ncc(-c3ccc(OCCCn4ccnc4)cc3)s2)cc1", "IC50": 7.94},
      {"smiles": "O=C(NCc1ccco1)N1CCN(Cc2ccc3c(c2)CCO3)CC1", "IC50": 2.51},
      {"smiles": "CC(C)c1noc(N2CCC([C@H](C)Oc3cnc(-c4ccc(S(C)(=O)=O)c(F)c4)cn3)CC2)n1", "IC50": 6.31},
      {"smiles": "Nc1ccccc1Nc1ccc(Cl)cc1", "IC50": 0.1},
      {"smiles": "NS(=O)(=O)c1ccc(Nc2cnc3ccccc3n2)cc1", "IC50": 6.31},
      {"smiles": "Cc1ccc2c(c1)c(=O)cc(C(F)(F)F)n2CCNC(=O)c1ccccn1", "IC50": 6.31},
      {"smiles": "CCOc1cc2ccccc2cc1C(=O)NC", "IC50": 6.31},
      {"smiles": "FC(F)(F)Oc1ccc(-c2cc3ccncc3cc2OC2CCNCC2)cc1", "IC50": 3.16},
      {"smiles": "Fc1cccc(Oc2cc(C3CCCNC3)nc(-c3ccncc3)n2)c1", "note": "(stereo not given)", "IC50": 12.6},
      {"smiles": "CNc1nc(SC)nnc1-c1cccc(Cl)c1Cl", "IC50": 12.6},
      {"smiles": "NCC(c1cccs1)S(=O)(=O)c1ccccc1", "note": "(stereo not given)", "IC50": 5.01},
      {"smiles": "COc1ccc(CCNC(=O)C2(n3cnnn3)CCCCC2)cc1", "IC50": 3.98},
      {"smiles": "CC(C)Oc1ccc(-c2nnc(-c3ccc4c(c3)CCNCC4)s2)cc1Cl", "IC50": 2.51},
      {"smiles": "COc1ccc(-c2nnc3sc(Cc4csc(C)n4)nn23)cc1", "IC50": 5.01},
      {"smiles": "N#Cc1cc(C(F)(F)F)c2nc(C(=O)NCc3cccs3)c(Cl)n2c1", "IC50": 6.31},
      {"smiles": "Cn1cc(CCNC(=O)Nc2ccc(N3CCCCC3)nc2)cn1", "IC50": 20},
      {"smiles": "O=C(O)CCc1nc2ccccc2oc1=O", "IC50": 7.94},
      {"smiles": "COc1ccc(Nc2ncccc2N)cc1", "IC50": 0.794},
      {"smiles": "COc1ccc(CN2CCN(C(=O)/C=C/c3csc(C)n3)CC2)cc1", "IC50": 5.01}
    ]}
  ]
}
